Measured values taken from ChEMBL document CHEMBL3232789, “Design and synthesis of novel 2H-chromen-2-one derivatives bearing 1,2,3-triazole moiety as lead antimicrobials” (2014).

Legend:
[1] = tested on: Escherichia coli; experiment: Antibacterial activity against Escherichia coli MTCC 443 assessed as growth inhibition at 100 ug/mL after 14 hrs by cup plate method; assay type: functional; conditions: MTCC 443, 14 h, read-out: DIZ
[2] = tested on: Salmonella typhi; experiment: Antibacterial activity against Salmonella typhi MTCC 733 assessed as growth inhibition at 100 ug/mL after 14 hrs by cup plate method; assay type: functional, Salmonella enterica subsp. enterica serovar Typhi; conditions: Salmonella enterica, MTCC 733, 14 h; read-out: DIZ
[3] = tested on: Aspergillus niger; experiment: Antifungal activity against Aspergillus niger MTCC 282 assessed as growth inhibition at 100 ug/mL after 30 hrs by cup plate method; assay type: functional; conditions: MTCC 282, 30 h, read-out: DIZ
[4] = tested on: Klebsiella pneumoniae; experiment: Antibacterial activity against Klebsiella pneumoniae MTCC 432 assessed as growth inhibition at 100 ug/mL after 14 hrs by cup plate method; assay type: functional; conditions: MTCC 432, 14 h, read-out: DIZ
[5] = tested on: Staphylococcus aureus; experiment: Antibacterial activity against Staphylococcus aureus MTCC 096 assessed as growth inhibition at 100 ug/mL after 14 hrs by cup plate method; assay type: functional; conditions: MTCC 096, 14 h, read-out: DIZ
[6] = tested on: Aspergillus flavus; experiment: Antifungal activity against Aspergillus flavus MTCC 277 assessed as growth inhibition at 100 ug/mL after 30 hrs by cup plate method; assay type: functional; conditions: MTCC 277, 30 h, read-out: DIZ
[7] = tested on: Candida albicans; experiment: Antifungal activity against Candida albicans MTCC 227 assessed as growth inhibition at 100 ug/mL after 30 hrs by cup plate method; assay type: functional; conditions: MTCC 227, 30 h, read-out: DIZ
[8] = tested on: Bacillus subtilis; experiment: Antibacterial activity against Bacillus subtilis MTCC 441 assessed as growth inhibition at 100 ug/mL after 14 hrs by cup plate method; assay type: functional; conditions: MTCC 441, 14 h, read-out: DIZ
[9] = tested on: Staphylococcus epidermidis; experiment: Antibacterial activity against Staphylococcus epidermidis MTCC 435 assessed as growth inhibition at 100 ug/mL after 14 hrs by cup plate method; assay type: functional; conditions: MTCC 435, 14 h, read-out: DIZ
[10] = tested on: Pseudomonas aeruginosa; experiment: Antibacterial activity against Pseudomonas aeruginosa MTCC 424 assessed as growth inhibition at 100 ug/mL after 14 hrs by cup plate method; assay type: functional; conditions: MTCC 424, 14 h, read-out: DIZ
[11] = tested on: Aspergillus fumigatus; experiment: Antifungal activity against Aspergillus fumigatus MTCC 343 assessed as growth inhibition at 100 ug/mL after 30 hrs by cup plate method; assay type: functional; conditions: MTCC 343, 30 h, read-out: DIZ

| Structure (SMILES) | zone of inhibition at 100 µg/mL [1] [mm] | zone of inhibition at 100 µg/mL [2] [mm] | zone of inhibition at 100 µg/mL [3] [mm] | zone of inhibition at 100 µg/mL [4] [mm] | zone of inhibition at 100 µg/mL [5] [mm] | zone of inhibition at 100 µg/mL [6] [mm] | zone of inhibition at 100 µg/mL [7] [mm] | zone of inhibition at 100 µg/mL [8] [mm] | zone of inhibition at 100 µg/mL [9] [mm] | zone of inhibition at 100 µg/mL [10] [mm] | zone of inhibition at 100 µg/mL [11] [mm] |
| --- | --- | --- | --- | --- | --- | --- | --- | --- | --- | --- | --- |
| Cc1cc(=O)oc2cc(OCCCCCCn3cc(CN4CCCC4)nn3)ccc12 | 11.7 | 15.2 | 12.5 | 14.4 | 13.6 | 14.7 | 14.4 | 14 | 14 | 14.8 | 18.5 |
| Cc1cc(=O)oc2cc(OCCCCCCn3cc(CN4CCCCC4)nn3)ccc12 | 12.8 | 14.4 | 11.9 | 12.9 | 12.9 | 12.5 | 14 | 12.6 | 13.1 | 13.2 | 18.8 |
| Cc1cc(=O)oc2cc(OCCCCCCn3cc(CN4CCOCC4)nn3)ccc12 | 14.4 | 13.5 | 12.9 | 14.6 | 11.7 | 16.8 | 13.5 | 15.4 | 13.4 | 14.5 | 16.9 |
| Cc1cc(=O)oc2cc(OCCCCCCn3cc(CN4CCN(C)CC4)nn3)ccc12 | 14.7 | 13.1 | 14 | 12.4 | 12.5 | 14.4 | 13.6 | 12.4 | 14.6 | 13.9 | 18.4 |
| CC(=O)N1CCN(Cc2cn(CCCCCCOc3ccc4c(C)cc(=O)oc4c3)nn2)CC1 | 13.3 | 12.1 | 12.7 | 14.4 | 14.4 | 12.9 | 14.7 | 12.4 | 14.8 | 17.1 | 18.2 |
| Cc1cc(=O)oc2cc(OCCCCCCn3cc(CN4CCN(Cc5ccc6c(c5)OCO6)CC4)nn3)ccc12 | 12.3 | 14.1 | 11.9 | 13.9 | 14 | 15 | 16.8 | 12.5 | 11.9 | 14.9 | 20.6 |
| Cc1cc(=O)oc2cc(OCCCCn3cc(CN4C(=O)c5ccccc5C4=O)nn3)ccc12 | 12.7 | 12.2 | 12.8 | 12.4 | 12.8 | 13.8 | 16.5 | 12.9 | 12.4 | 13.9 | 19 |
| Cc1cc(=O)oc2cc(OCCCCCCn3cc(CN4C(=O)c5ccccc5C4=O)nn3)ccc12 | 13.4 | 12.4 | 13.9 | 12.9 | 12.9 | 15.2 | 14.9 | 12.8 | 12.6 | 12.8 | 18.5 |
| Cc1cc(=O)oc2cc(OCc3cn(CCN4C(=O)c5ccccc5C4=O)nn3)ccc12 | 14.5 | 11.9 | 14.4 | 13.3 | 13 | 12.5 | 20.2 | 10.5 | 12.4 | 13 | 19.5 |
| Cc1cc(=O)oc2cc(OCc3cn(CCCN4C(=O)c5ccccc5C4=O)nn3)ccc12 | 12.6 | 12.3 | 13.2 | 14.4 | 12.8 | 16.4 | 18.6 | 12.5 | 11.4 | 13.1 | 21.3 |
| Cc1cc(=O)oc2cc(OCc3cn(CCCCN4C(=O)c5ccccc5C4=O)nn3)ccc12 | 12.4 | 12.5 | 13.5 | 11.6 | 12.6 | 14.8 | 16.6 | 11.6 | 12.8 | 14 | 18.9 |
| Cc1cc(=O)oc2cc(OCc3cn(CCCCCN4C(=O)c5ccccc5C4=O)nn3)ccc12 | 12.5 | 12.7 | 12.3 | 12.6 | 12.5 | 14.5 | 16.9 | 13.6 | 12.6 | 12.9 | 23.4 |
| Cc1cc(=O)oc2cc(OCCCCN=[N+]=[N-])ccc12 | 13 | 12.9 | 13.1 | 12.5 | 13.5 | 13.6 | 19.3 | 11.3 | 12.7 | 12.8 | 18.6 |
| Cc1cc(=O)oc2cc(OCCCCCCN=[N+]=[N-])ccc12 | 14.3 | 12.4 | 13.8 | 14.5 | 15.7 | 16.4 | 18.7 | 12.5 | 13.5 | 13 | 19 |
